“Also recorded” adds a separate entry of the source.
Key:
[1] = tested on: KM20 cells; assay: Ribonuclease protection assay, KM20 cells; type: cell-based, human
Description: Cells were treated with pik3r1 and Akt1 siRNA and harvested 72 h later. RNA was isolated from cells using TRIzol® RNA reagent according to the manufacturer's protocol. A multiprobe template set (hAPO3c), which assesses expression of caspase 8, FASL, FAS, DR3, Decoy receptor 1 (DcR1), DR4, DR5, TRAIL, TNFR p55, TRADD and the housekeeping genes GAPDH and L32, as well as the Human Apoptosis hAPO-2b and hAPO-2c Template Set were labeled using Ambion T7 MAXIscript. The Ambion RPA III kit was then utilized to hybridize the RNA from the samples with the labeled probes. After RNAse treatment of hybridized samples, protected products were resolved on a 5% acrylamide gel, adsorbed onto filter paper, and exposed to Kodak BioMax MR film in a cassette at −70° C. and analyzed as previously described (Wang, et al., 2000).

[2] = tested on: PI3K/Akt pathway; assay: Western blot and immunofluorescence of Akt1, p85α and pAkt in transfected KM20 cells; type: cell-based, human
Description: Cell culture transfection was carried out with siPORT™ Amine transfection agent according to the manufacturer's protocol. Three days after transfection with the siRNA duplexes, cells were harvested and protein expression was assessed by Western blot.
(§1) Western immunoblot analyses were performed as described previously (Wang, et al., 2000). Cells were lysed with TNN buffer at 4° C. for 30 min. Lysates were clarified by centrifugation (10,000×g for 30 min at 4° C.) and protein concentrations determined using the method of Bradford (1976). Briefly, total protein (100 μg) was resolved on a 10% polyacrylamide gel and transferred to Immobilon-P […] membranes. Filters were incubated overnight at 4° C. in blotting solution (Tris-buffered saline containing 5% nonfat dried milk and 0.1% Tween 20), followed by a 1-h incubation with primary antibodies. Filters were washed three times in a blocking solution and incubated with horseradish peroxidase-conjugated secondary antibodies for 1 h. After three additional washes, the immune complexes were visualized by ECL detection.
KM20 cells were seeded onto sterile glass coverslips in 60 mm dishes and cultured for 16-24 h before treatment. Cells were transfected with pik3r1 or Akt1 or scrambled (control) siRNA sequences. At 96 h posttransfection, cells were washed in PBS, fixed in cold methanol for 5 min, and washed in three changes of PBS followed by a solution of 10% normal goat serum. After washing, cells were then incubated with the primary antibody (diluted in PBS with 1.5% normal goat serum) for 60 min. […] After three final washes, the slides were viewed with a fluorescence microscope.
It is speculated that siRNA directed to PI3K/Akt pathway components would inhibit cell growth and induce apoptosis in human colorectal cancer cell lines. […] In view of evidence that Akt plays a critical role in the prosurvival properties of PI3K (Nichol son, et al., 2002), activation of Akt in pik3r1 and Akt1 siRNA treated cells was then analyzed by Western blot and immunofluorescent analysis using a phospho-specific Ser473 Akt antibody.

[3] = tested on: KM20 tumor xenografts; assay: KM20 tumor xenograft growth in nude mice, intratumoral siRNA with electrotherapy; type: in vivo; settings: 5 μg siRNA intratumoral + electric pulses every 3rd day; by day 12, persisted for the study period (30 days)
Description: For in vivo studies, 4-6 week old male nude^nu/nu mice were obtained from Harlan Sprague Dawley (Indianapolis, Ind.) and housed in clean pathogen-free rooms in an environment with controlled temperature (22° C.), humidity, and a 12 h light/dark cycle. The mice were fed standard chow (Formula Chow 5008; Purina Mills, St. Louis, Mo.) and tap water ad libitum and allowed to acclimate for one week.
Prior to tumor injection, KM20 cells were harvested, washed twice in ice-cold serum free minimum Eagle's medium, counted for viable cells by trypan blue exclusion. The cells were resuspended in the same medium and used to inject mice subcutaneously (sc) with 2×10^6 cells in a volume of 0.2 ml. After tumors reached ˜60 mm^2, mice were sacrificed and 9 mm^2 tumor xenografts were transferred to the left flank of athymic mice. After tumor xenografts reached ˜60 mm^2 (day 10), mice were randomly divided into three groups (n=5 mice/group): the first group of mice was treated with scrambled siRNA, the second and third groups were treated with siRNA (5 μg diluted in 100 μl of serum free medium) directed against pik3r1 or Akt1, respectively, as intratumoral injections. […] Tumor growth was assessed every third day from day 10 onward by measuring the two greatest perpendicular tumor dimensions using vernier calipers (Mitutozo, Tokyo, Japan) (Wang, et al., 2002). […]

[4] = tested on: KM20 cells; assay: MTT assay, KM20 cells; type: cell-based, human; settings: KM20 cells at 96, 120 and 144 h after transfection
Description: (§2) Cells were transfected with pik3r1, Akt1 or scrambled siRNA at a density of 2×10^5 cells/well in 12 well plates. After 24 h, adherent cells were detached by rapid trypsinization, counted in a Hausser chamber and replated into 96 well plates at a concentration of 2×10^3 cells/well. […]

[5] = tested on: KM12C cells; assay: MTT assay, KM12C cells; type: cell-based, human; settings: KM12C cells at 96, 120 and 144 h after transfection
Description: as §2

[6] = tested on: KM20 tumor xenografts; assay: Western blot of KM20 tumor xenografts after siRNA treatment; type: in vivo, mice
Description: as §1
Prior to tumor injection, KM20 cells were harvested, washed twice in ice-cold serum free minimum Eagle's medium, counted for viable cells by trypan blue exclusion. The cells were resuspended in the same medium and used to inject mice subcutaneously (sc) with 2×10^6 cells in a volume of 0.2 ml. After tumors reached ˜60 mm^2, mice were sacrificed and 9 mm^2 tumor xenografts were transferred to the left flank of athymic mice. After tumor xenografts reached ˜60 mm^2 (day 10), mice were randomly divided into three groups (n=5 mice/group): the first group of mice was treated with scrambled siRNA, the second and third groups were treated with siRNA (5 μg diluted in 100 μl of serum free medium) directed against pik3r1 or Akt1, respectively, as intratumoral injections. Treatments consisted of electrotherapy initiated from 2 to 3 min after intratumoral siRNA injection once a day every 3 days. Tumor growth was assessed every third day from day 10 onward by measuring the two greatest perpendicular tumor dimensions using vernier calipers (Mitutozo, Tokyo, Japan) (Wang, et al., 2002). Consistent with institutional requirements, the mice were euthanized once tumors grew to a size greater that 2 cm.
Electrotherapy consisted of intratumoral administration of pik3r1, Akt1 or scrambled control siRNA followed by exposure of tumor nodules to electric pulses. Square wave electric pulses of 70 μsec, 100 V amplitude were delivered through two parallel stainless steel electrodes (Tweezertrode Model 522, Holliston, Mass.) with an electropulsator BTX T 820 (Holliston, Mass.). In the study, plate electrodes with a distance of 10 mm between them were used for percutaneous delivery of electric pulses. Each run of electric pulses was delivered in two trains of tree pulses, with 1 sec interval, in two perpendicular directions. The orientation of the electric field was used to direct the uptake of the siRNA. Good contact between the electrodes and the skin was assured by means of a conductive gel. Nodules larger than 7 mm in diameter were treated with several runs of electric pulses, administered in adjacent positions in such a way that the whole tumor area was effectively treated.

pik3r1 siRNA: siRNA to human pik3r1 (p85α) used in KM20/KM12C cells and xenografts; SEQ ID NO:24 vs. SEQ ID NO:25 (chain 1 GAAUAUACCCGCACAUCCCUU; chain 2 GGGAUGUGCGGGUAUAUUCUU; listed as RNA, chemistry not given here)
Bcl-w mRNA expression [1]: decreased
Bcl-x (L, S) mRNA expression [1]: decreased
expression of the other apoptotic-related genes in the probe set [1]: no marked change
mRNA expression of DR4 and DR5 [1]: increased
pAkt expression (immunofluorescent analysis) ([2]; 96 h posttransfection, compared with scrambled sequences): suppression
p85α protein levels ([2]; Western blot, 72, 96 and 120 h after transfection in Example 19): reduced; also recorded: decreased
pAkt expression levels ([2]; Western blot, phospho-Ser473 Akt antibody): suppressed; also recorded: decreased
KM20 tumor growth [3]: Significant inhibitory effects
cell viability (MTT) [4]: significantly decreased
cell viability (MTT) [5]: significantly decreased
Bax protein expression [6]: increased
PARP cleavage [6]: increased
activation of caspase-3 [6]: increased
activation of caspase-8 [6]: increased
activation of caspase-9 [6]: increased
p85α expression [6]: decreased
pAkt expression [6]: decreased
Bcl-xL protein expression ([6]; compared to scrambled sequence): decreased
Mcl-1 protein expression ([6]; compared to scrambled sequence): decreased
cytochrome C expression ([6]; compared with scrambled control): increased
